Values quoted from earlier work, collected in patent US6994842B2, “Aerogel powder therapeutic agents” (Aspen Aerogels, Inc., priority 2000, dated 2006).

Row | SMILES | solubility in water | solubility in supercritical carbon dioxide (supercritical carbon dioxide)
1 | CCC(=O)C(CC(C)N(C)C)(c1ccccc1)c1ccccc1 (stereo not drawn) [Methadone] | 12 g/100 mL | 
2 | O=C1CC[C@@]2(O)[C@H]3Cc4ccc(O)c5c4[C@@]2(CCN3CC2CC2)[C@H]1O5 [free base Naltrexone, Naltrexone] | not that soluble | highly soluble
